Laboratory results from patent US20230024521A1, “JAK INHIBITORS” (Vimalan Biosciences, Inc., priority 2019, published 2023).

Key:
JAK3 = biological target: T1, JAK3 (Homo sapiens, UniProt P52333); assay: JAK/TYK2 assay (Kinase Glo luminescence): Jak3 kinase assay; assay type: biochemical; details: 1.5 nM enzyme, 2 uM ATP, 4 uM pEY, 1 hr; read-out: Jak3 kinase assay: IC50 Geomean
T1 sequence (P52333 1-1124): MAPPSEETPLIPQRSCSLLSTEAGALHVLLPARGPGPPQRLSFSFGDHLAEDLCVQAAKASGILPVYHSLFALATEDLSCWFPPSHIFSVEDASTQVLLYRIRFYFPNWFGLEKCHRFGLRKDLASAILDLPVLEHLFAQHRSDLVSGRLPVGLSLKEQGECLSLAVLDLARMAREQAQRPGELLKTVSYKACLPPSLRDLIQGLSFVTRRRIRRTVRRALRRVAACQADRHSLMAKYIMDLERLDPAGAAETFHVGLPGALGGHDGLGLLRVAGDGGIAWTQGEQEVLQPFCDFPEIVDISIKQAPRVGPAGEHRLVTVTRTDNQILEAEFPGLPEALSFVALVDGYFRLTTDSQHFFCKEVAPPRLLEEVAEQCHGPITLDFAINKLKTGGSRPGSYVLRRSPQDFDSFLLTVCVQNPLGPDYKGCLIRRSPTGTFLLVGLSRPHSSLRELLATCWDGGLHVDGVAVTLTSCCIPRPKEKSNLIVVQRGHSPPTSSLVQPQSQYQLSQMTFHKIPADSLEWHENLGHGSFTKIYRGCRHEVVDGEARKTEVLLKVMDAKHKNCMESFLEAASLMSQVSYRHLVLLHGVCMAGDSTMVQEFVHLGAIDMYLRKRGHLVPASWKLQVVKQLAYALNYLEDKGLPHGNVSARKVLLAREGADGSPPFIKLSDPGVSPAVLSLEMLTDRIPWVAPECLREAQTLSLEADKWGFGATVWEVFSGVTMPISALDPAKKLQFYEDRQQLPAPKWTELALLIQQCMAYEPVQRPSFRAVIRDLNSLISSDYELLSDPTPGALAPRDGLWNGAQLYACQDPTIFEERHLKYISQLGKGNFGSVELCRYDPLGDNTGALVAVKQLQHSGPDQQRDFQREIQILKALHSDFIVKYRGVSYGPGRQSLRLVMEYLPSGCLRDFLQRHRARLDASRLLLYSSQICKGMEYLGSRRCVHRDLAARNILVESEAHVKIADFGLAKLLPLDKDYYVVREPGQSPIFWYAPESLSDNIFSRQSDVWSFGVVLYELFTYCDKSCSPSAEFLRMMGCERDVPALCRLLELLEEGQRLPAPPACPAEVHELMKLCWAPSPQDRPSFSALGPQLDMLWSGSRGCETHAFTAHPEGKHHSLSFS
Protocol: (§1) Example A: JAK/TYK2 Assay 10 mM test compound stock or 1 mM control compound stock (tofocitinib, ruxolitinib or staurosporine) in DMSO was diluted to 0.4 mM in DMSO. A 3-fold series dilution was then performed in DMSO to generate 10 different compound concentrations. The assay was carried out in 384-well white plate. 0.5 μL of 40× compound DMSO solution at different concentrations was mixed with 10 uL 2× enzyme prepared in reaction buffer (20 mM HEPES, 10 mM MgCl2, 0.01% Tween, 1 mM DTT, pH 7.5). 10 uL 2× substrate mixture prepared in reaction buffer was then added to start the reaction. A short spin was done to settle down all solutions to the bottom of the plate. Final concentrations of test compound in the reaction mixture were 10000, 3333, 1111, 370, 123, 41.2, 13.7, 4.57, 1.52 and 0.51 nM, Concentrations of control compound were ten times less. Enzymatic reaction was conducted at 25° C. for 1-2 hours. 10 uL of Kinase Glo Reagents was added to stop the reaction and generate the luminescent signal which was measured using Envision. Luminescence signal was inversely related to kinase activity. […] The mixture without any compound was the positive control. [table]

TYK2 = TYK2 (Homo sapiens, UniProt P29597); assay: JAK/TYK2 assay (Kinase Glo luminescence): Tyk2 kinase assay; assay type: biochemical; details: 9 nM enzyme, 2 uM ATP, 30 uM IRS-1, 1 hr; read-out: Tyk2 kinase assay: IC50 Geomean
Sequence of TYK2 (P29597 whole entry, species assumed): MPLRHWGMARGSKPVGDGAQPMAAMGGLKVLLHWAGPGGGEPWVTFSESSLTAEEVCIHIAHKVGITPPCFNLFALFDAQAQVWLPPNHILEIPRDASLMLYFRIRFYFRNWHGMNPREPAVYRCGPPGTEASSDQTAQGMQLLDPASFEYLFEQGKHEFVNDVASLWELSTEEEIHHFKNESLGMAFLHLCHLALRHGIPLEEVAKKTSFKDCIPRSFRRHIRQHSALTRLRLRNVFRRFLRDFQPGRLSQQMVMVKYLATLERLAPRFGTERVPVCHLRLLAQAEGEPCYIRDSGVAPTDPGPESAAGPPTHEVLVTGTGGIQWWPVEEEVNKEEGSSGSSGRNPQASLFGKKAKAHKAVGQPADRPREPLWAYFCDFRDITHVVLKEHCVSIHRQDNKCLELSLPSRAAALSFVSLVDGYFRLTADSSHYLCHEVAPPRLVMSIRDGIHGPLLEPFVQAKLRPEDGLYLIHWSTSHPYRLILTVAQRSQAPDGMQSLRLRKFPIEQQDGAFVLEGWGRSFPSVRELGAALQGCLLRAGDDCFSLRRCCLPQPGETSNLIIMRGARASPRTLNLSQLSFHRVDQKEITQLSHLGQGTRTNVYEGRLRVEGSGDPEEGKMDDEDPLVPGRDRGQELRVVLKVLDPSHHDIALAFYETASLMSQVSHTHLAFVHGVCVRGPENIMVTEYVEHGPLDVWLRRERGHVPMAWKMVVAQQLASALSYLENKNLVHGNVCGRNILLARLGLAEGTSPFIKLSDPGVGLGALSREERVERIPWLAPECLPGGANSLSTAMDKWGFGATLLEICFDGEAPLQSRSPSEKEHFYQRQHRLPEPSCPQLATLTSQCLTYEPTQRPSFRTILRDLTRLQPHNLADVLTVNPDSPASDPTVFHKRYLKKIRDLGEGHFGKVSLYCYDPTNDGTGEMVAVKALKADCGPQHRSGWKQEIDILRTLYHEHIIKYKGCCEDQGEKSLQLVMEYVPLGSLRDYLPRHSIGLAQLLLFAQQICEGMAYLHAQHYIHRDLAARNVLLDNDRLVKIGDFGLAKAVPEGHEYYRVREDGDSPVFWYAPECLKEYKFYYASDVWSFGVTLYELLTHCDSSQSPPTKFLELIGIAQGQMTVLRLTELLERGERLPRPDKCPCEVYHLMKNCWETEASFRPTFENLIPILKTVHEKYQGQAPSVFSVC
Protocol: as §1

JAK1 = JAK1 (Homo sapiens, UniProt P23458); assay: JAK/TYK2 assay (Kinase Glo luminescence): Jak1 kinase assay; assay type: biochemical; details: 7.5 nM enzyme, 2 uM ATP, 30 uM IRS-1, 1 hr
Sequence of JAK1 (P23458 whole entry, species assumed): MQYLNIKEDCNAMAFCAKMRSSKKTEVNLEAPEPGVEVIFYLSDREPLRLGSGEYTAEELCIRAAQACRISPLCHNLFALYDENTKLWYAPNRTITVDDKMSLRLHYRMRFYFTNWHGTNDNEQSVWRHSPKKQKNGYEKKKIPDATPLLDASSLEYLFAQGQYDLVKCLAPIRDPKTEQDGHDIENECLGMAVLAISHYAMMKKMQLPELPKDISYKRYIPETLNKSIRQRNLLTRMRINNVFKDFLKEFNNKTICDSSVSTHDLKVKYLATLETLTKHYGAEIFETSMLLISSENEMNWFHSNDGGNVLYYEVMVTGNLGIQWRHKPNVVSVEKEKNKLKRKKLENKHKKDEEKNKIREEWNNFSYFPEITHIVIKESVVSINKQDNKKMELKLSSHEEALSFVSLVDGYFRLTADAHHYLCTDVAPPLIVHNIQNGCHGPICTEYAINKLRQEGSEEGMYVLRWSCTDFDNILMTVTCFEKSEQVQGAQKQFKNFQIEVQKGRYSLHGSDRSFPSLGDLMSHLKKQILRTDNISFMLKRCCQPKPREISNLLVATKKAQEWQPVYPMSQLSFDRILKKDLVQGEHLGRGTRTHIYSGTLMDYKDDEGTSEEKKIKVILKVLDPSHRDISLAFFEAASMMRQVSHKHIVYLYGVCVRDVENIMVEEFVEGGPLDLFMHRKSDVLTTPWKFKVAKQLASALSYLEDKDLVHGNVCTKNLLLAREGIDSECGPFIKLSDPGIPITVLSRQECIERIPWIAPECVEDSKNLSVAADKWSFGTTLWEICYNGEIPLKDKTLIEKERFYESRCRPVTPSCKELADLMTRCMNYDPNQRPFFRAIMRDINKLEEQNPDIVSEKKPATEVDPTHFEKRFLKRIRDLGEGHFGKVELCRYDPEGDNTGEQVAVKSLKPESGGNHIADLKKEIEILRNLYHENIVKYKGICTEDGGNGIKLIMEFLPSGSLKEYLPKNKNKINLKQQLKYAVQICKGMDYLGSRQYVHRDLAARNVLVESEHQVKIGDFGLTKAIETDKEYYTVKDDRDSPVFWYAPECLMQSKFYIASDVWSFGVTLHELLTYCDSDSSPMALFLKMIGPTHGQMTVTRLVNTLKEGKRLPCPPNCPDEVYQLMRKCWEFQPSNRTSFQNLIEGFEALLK
Protocol: as §1

[1] = test system: JAK2: GM-CSF stimulated STAT5 phosphorylation; assay: Co-stimulation assay in lysed whole blood; JAK2: GM-CSF stimulated STAT5 phosphorylation; assay type: cell-based, human; details: Homo sapiens, read-out: GMCSF/J2/pS5: GeoMean (nM)
Protocol: Example C: Co-Stimulation Assay in Lysed Whole Blood; JAK2: GM-CSF Stimulated STAT5 Phosphorylation and JAK1/TYK2 Stimulated STAT1 Phosphorylation Assay
Human Blood Lysis using abcam's RBC lysis buffer
Dilute RBC lysis buffer to 1× in distilled water. Add 2 mL blood to 38 mL of 1×RBC-lysis buffer. Incubate for 15 mins at RT, in dark. Spin at 300 g, 5 mins, to collect the pellet. Re-lyse if necessary. Re-suspend pellet in 5 mL of cRPMI.
Aliquot 80 μL of lysed human blood in to wells of 96 deep-well plate. Add 10 μl of (10× conc.) of different concentrations of compounds to all wells except controls (unstained and unstimulated) and mix it with the help of 100 uL multichannel Add 10 uL of RPMI media in controls. For dilution of compounds and dilution range please refer Appendix. Incubate on water bath or CO2 incubator for 1 hour at 37° C. Add 10 μl of (10× conc.) of cytokine mix (GM-CSF and IFNa) (final conc. 10 ng/mL of GM-CSF and 100 ng/mL of IFNa) to each well except unstimulated and unstained controls and incubate further for 20 minutes on water bath at 37° C.
Add 900 μL of prewarmed 1× Fix/Lyse solution (Appendix) and mix it properly using 1000 μl multichannel, incubate further on water bath at 37° C. for 10 minutes (which includes time of addition). Centrifuge at 800×g for 5 minutes at 40° C.; remove 900 uL of supernatant and add 900 μL of 1×PBS. Centrifuge at 800×g for 5 minutes at 40° C., remove 900 μL of supernatant. Wash one more time with 900 μL of PBS (optional) and resuspend pellets in 100 uL of PBS.
Disrupt the pellet by gentle tapping and resuspend in 1000 μL of BD Phosflow Perm Buffer III and incubate plate on ice for 30 minutes. Centrifuge plate at 800×g for 5 minutes at 40° C. Wash two more times with 1000 μL of BD Pharmingen Stain Buffer.
Disrupt the pellet by gentle tapping. Resuspend pellets in 100 uL of Stain Buffer and add 5 μL of pSTAT5_AF488 Ab and 5 uL of pSTAT1_PE in all wells except unstained control and mix properly using 200 μl multichannel, incubate overnight at […]. Add 900 μL of wash buffer and centrifuge at 1800 rpm for 3 minutes at […]. Wash one more time with 1000 μL of BD Pharmingen Stain Buffer. Finally resuspend the pellet in 300 uL of BD Pharmingen Stain Buffer. Transfer the cells to 96-well v-bottom plate and acquire the cells in Beckman Coulter CytExpert. Acquiring cells in Flow Cytometer: Keep the threshold value to 250 and cell concentration should not exceed 100-500 cells/4. Acquire at least 5,000-10,000 cells.
RPMI 1640 Complete Medium: RPMI 1640 media+10% FBS.
Cytokine dilution: 1) GM-CSF Stock at 100 ug/mL. Prepare an intermediate dilution of 1 ug/mL by adding 2 uL of stock into 198 uL of cRPMI. Further dilute to 100 ng/mL by adding 100 uL of the intermediate stock to 900 uL of cRPMI. 2) IFNa Stock at 200 ug/mL. Dilute IFNa stock 1:200 by adding 5 uL of stock into the 1000 uL of 100 ng/mL GM-CSF working stock as above to give a combined working stock of 1000 ng/mL of IFNa and 100 ng/mL GM-CSF (10×). Keep it on ice until used.
Lyse/Fix buffer preparation: Dilute 5× Lyse/Fix buffer to 1× using MQ water and keep at 37° C. until used.
BD Phosflow perm buffer III: Keep on ice/fridge

JAK2 = JAK2 (Homo sapiens, UniProt O60674); assay: JAK/TYK2 assay (Kinase Glo luminescence): Jak2 kinase assay; assay type: biochemical; details: 0.8 nM enzyme, 2 uM ATP, 4 uM pEY, 1 hr; read-out: Jak2 kinase assay: IC50 Geomean
Sequence of JAK2 (O60674 whole entry, species assumed): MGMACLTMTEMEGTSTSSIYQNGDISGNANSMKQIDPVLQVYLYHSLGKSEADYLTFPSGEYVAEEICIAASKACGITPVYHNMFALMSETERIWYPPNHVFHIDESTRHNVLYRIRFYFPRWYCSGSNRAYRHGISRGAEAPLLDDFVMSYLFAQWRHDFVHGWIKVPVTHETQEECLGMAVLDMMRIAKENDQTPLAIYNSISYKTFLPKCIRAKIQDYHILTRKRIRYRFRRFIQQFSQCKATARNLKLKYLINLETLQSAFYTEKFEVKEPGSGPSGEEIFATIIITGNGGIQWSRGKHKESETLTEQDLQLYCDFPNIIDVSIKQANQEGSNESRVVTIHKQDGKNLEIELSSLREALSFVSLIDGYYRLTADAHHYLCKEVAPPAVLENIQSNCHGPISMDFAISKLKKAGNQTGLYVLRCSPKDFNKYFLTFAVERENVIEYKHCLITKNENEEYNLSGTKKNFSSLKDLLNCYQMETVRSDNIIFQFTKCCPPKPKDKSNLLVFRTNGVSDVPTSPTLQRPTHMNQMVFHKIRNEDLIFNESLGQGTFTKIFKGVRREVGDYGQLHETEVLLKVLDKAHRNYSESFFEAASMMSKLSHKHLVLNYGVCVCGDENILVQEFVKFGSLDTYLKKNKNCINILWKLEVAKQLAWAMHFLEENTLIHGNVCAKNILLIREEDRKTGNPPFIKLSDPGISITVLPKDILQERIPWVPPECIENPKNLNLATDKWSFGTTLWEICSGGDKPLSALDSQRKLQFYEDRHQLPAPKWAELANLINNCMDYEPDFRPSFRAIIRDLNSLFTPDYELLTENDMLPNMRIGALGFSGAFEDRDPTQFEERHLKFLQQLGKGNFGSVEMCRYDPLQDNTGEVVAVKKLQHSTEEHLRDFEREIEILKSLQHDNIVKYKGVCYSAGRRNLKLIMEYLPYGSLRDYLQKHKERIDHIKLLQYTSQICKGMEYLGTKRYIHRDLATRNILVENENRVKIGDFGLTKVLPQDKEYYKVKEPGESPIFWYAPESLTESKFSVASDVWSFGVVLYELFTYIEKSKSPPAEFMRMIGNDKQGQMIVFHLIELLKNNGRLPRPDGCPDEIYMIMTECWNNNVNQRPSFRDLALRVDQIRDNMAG
Protocol: as §1

`CC[C@H](Cn1ccc2cnc(Nc3cnn(CC(=O)Nc4ccncc4)c3)nc21)C(C)C` [Example 2, (5)-2-(4-((7-(2-ethyl-3-methylbutyl)-7H-pyrrolo[2,3-d]pyrimidin-2-yl)amino)-1H-pyrazol-1-yl)-N-(pyridin-4-yl) acetamide] showed an IC50 (JAK3) of less than 100 nM, an IC50 (TYK2) of less than 100 nM and an IC50 (JAK1) of less than 100 nM. For the same compound, the IC50 [1] was 1000 to 10000 nM and the IC50 (JAK2) was less than 100 nM.
Work on `CC[C@H](Cn1ccc2cnc(Nc3cnn(CC(=O)N(C)S(C)(=O)=O)c3)nc21)C(C)C` [Example 4, (5)-2-(4-((7-(2-ethyl-3-methylbutyl)-7H-pyrrolo[2,3-d]pyrimidin-2-yl)amino)-1H-pyrazol-1-yl)-N-methyl-N-(methylsulfonyl) acetamide] yielded an IC50 (JAK3) of less than 100 nM, an IC50 (TYK2) of less than 100 nM and an IC50 (JAK1) of less than 100 nM. The IC50 [1] was 100 to 1000 nM and the IC50 (JAK2) was less than 100 nM.
With `CCC(CC)Cn1ccc2cnc(Nc3cnn(CC(=O)N(C)C)c3)nc21` [Example 5, 2-(4-((7-(2-ethylbutyl)-7H-pyrrolo[2,3-d]pyrimidin-2-yl)amino)-1H-pyrazol-1-yl)-N, N-dimethylacetamide] the IC50 (JAK3) was less than 100 nM, the IC50 (TYK2) was less than 100 nM and the IC50 (JAK1) was less than 100 nM. For the same compound, the IC50 [1] was 1000 to 10000 nM and the IC50 (JAK2) was less than 100 nM.
Compound `CCC(CC)Cn1ccc2cnc(Nc3cnn(CC(=O)NC)c3)nc21` [Example 6, 2-(4-((7-(2-ethylbutyl)-7H-pyrrolo[2,3-d]pyrimidin-2-yl)amino)-1H-pyrazol-1-yl)-N-methylacetamide] has an IC50 (JAK3) of less than 100 nM, an IC50 (TYK2) of less than 100 nM and an IC50 (JAK1) of less than 100 nM. For the same compound, the IC50 [1] was 100 to 1000 nM and the IC50 (JAK2) was less than 100 nM.
